# Test results taken from patent US7087609B2, “3-(pyridinyl-piperazin-1-yl)-phenylethyl amides as potassium channel openers” (Bristol-Myers Squibb Company, priority 2002, dated 2006).
# Molecular target: voltage-gated K+ channel KCNQ2 (Homo sapiens, UniProt O43526)
# Assay: thallium flux assay to detect openers of KCNQ potassium channels
# Type: cell-based
# Details: thallium influx assay; 10 point concentration series, 1:3 dilutions; concentration yielding 50% of maximal response (opening)
# Source text: A thallium flux assay was used to detect and characterize openers of KCNQ potassium channels. The thallium assay is generally described in International application WO 02/31508 published Apr. 18, 2002. More specifically, the thallium influx assay to detect compounds that block or open the voltage-gated K^+ channel KCNQ2 is described in Example IV of the published WO 02/31508 application.
# For data analysis, the amplitude of the average of the negative controls was subtracted from all wells. The amplitudes of the test compounds were then compared to the value of four standard deviations of the negative control wells. The lowest concentration of a test compound sufficient to generate a signal amplitude greater than or equal to four standard deviations from the amplitude of the negative controls was defined as the minimal active concentration.
# For generating EC50 values, compounds were serially diluted in 1:3 volume increments to produce a 10 point concentration series. EC50 values were calculated by fitting the resulting amplitudes to a single-site logistic equation. EC50 was defined as the concentration of test compound required to yield 50% of the maximal response. Maximal response (Maximal opening) was the largest signal amplitude above the negative control generated by any concentration of a test compound.
# voltage-gated K+ channel KCNQ2, sequence (O43526 whole entry): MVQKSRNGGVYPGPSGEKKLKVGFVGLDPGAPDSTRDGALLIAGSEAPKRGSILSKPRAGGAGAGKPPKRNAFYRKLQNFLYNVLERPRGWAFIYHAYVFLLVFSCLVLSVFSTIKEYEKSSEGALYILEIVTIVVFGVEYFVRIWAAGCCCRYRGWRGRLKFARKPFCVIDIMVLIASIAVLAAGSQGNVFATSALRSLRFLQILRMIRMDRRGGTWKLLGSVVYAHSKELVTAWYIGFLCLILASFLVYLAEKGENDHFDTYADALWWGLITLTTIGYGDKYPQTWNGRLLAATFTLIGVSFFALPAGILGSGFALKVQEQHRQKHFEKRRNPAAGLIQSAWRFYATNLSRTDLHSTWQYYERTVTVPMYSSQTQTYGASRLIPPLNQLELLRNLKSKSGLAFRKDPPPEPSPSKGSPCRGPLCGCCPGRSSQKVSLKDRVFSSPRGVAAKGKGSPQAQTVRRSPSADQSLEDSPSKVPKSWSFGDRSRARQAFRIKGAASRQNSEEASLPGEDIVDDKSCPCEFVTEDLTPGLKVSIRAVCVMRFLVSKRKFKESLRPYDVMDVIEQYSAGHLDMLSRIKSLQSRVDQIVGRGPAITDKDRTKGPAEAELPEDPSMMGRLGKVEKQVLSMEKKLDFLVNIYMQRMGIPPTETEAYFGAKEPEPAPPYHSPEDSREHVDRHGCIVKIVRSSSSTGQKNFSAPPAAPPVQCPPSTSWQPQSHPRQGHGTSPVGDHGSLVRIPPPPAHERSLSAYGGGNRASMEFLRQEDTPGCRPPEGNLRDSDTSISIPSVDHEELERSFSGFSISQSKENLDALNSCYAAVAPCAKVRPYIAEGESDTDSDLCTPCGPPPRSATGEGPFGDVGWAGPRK
row,Compound,EC50
1,"C[C@H](NC(=O)/C=C/c1c(F)cccc1F)c1cccc(N2CCN(c3ccccn3)CC2)c1 [Example 13, (S)-3-(2,6-Difluoro-phenyl)-N-{1-[3-(4-pyridin-2-yl-piperazin-1-yl)-phenyl]-ethyl}-acrylamide]",280 nM
2,"C[C@H](NC(=O)/C=C/c1cccc(F)c1F)c1cccc(N2CCN(c3ccccn3)CC2)c1 [Example 10, (S)-3-(2,3-Difluoro-phenyl)-N-{1-[3-(4-pyridin-2-yl-piperazin-1-yl)-phenyl]-ethyl}-acrylamide]",1 nM
3,"C[C@H](NC(=O)/C=C/c1cc(F)ccc1F)c1cccc(N2CCN(c3ccccn3)CC2)c1 [Example 12, (S)-3-(2,5-Difluoro-phenyl)-N-{1-[3-(4-pyridin-2-yl-piperazin-1-yl)-phenyl]-ethyl}-acrylamide]",4 nM
4,"C[C@H](NC(=O)/C=C/c1ccc(Cl)cc1F)c1cccc(N2CCN(c3ccccn3)CC2)c1 [Example 17, (S)-3-(4-Chloro-2-fluoro-phenyl)-N-{1-[3-(4-pyridin-2-yl-piperazin-1-yl)-phenyl]-ethyl}-acrylamide]",1 nM
5,"C[C@H](NC(=O)/C=C/c1ccccc1F)c1cccc(N2CCN(c3ccccn3)CC2)c1 [Example 3, (S)-3-(2-Fluoro-phenyl)-N-{1-[3-(4-pyridin-2-yl-piperazin-1-yl)-phenyl]-ethyl}-acrylamide]",476 nM
6,"C[C@H](NC(=O)/C=C/c1ccc(F)cc1F)c1cccc(N2CCN(c3ccccn3)CC2)c1 [Example 11, (S)-3-(2,4-Difluoro-phenyl)-N-{1-[3-(4-pyridin-2-yl-piperazin-1-yl)-phenyl]-ethyl}-acrylamide]",1 nM
